The values that follow come from a melting point compilation (Tetko et al.; mined from patent text by program, amines drawn as free bases though some values may be those of a salt).

In general, melting point refers to the temperature, or range, at which the solid turns liquid.

The structures appear in SMILES notation.

`CC1CC2C(=CCC3(C)C(C(=O)CCl)=CCC23)C2(C)C=CC(=O)C=C12` (stereo not drawn) showed a melting point of 164 °C. Then `CCN1CCN(c2cccc3c2C[C@H](NC(C)=O)CC3)CC1`, with 142 to 143 °C.

Take `CCN(CC)CCOC(=O)c1cnc2ccn(-c3cccc(Cl)c3)n2c1=O`: the melting point fell in the range of 153 to 154 °C.

With `CC(C)(C)OC(=O)N1C(=O)[C@H](O)[C@@H]1C=Cc1ccccc1`, the melting point was 132 to 133 °C.

In the case of `CN(C)Cc1nnc2n1-c1ccc(C(F)(F)F)cc1C(c1ccccc1)=[N+]([O-])C2`, the melting point was in the range of 188 to 190 °C. For the molecule `CCCCc1oc2ccccc2c1C(=O)Nc1ccc2cc(OCC(=O)OC)ccc2c1`, the melting point was in the range of 131 to 133 °C. With `COc1cc(C(=O)N2Cc3ccc(C(=O)NCc4ccc(C)cc4)n3Cc3ccccc32)ccc1-c1ccccc1C`, the melting point lay in the range of 179 to 180 °C. Then `N#Cc1cnn(-c2ccc(Cl)c(Cl)c2Cl)c1N`, with 154 to 156 °C. The molecule `COS(=O)(=O)Oc1ccc(-c2cccc(-c3nc(C(C)C)[nH]c3-c3cccc(C)n3)c2)cc1` displayed a melting point of 95 to 105 °C. Molecule `CCCc1nc2c(N)nc3cc(OCc4cccc(Cl)c4)ccc3c2n1CC(C)C` displayed a melting point of 182 to 183 °C. Then `CC#CCOc1ccc(/C=C/C(=O)Nc2ccccc2C(=O)O)cc1OC`, with 194 to 195 °C; and `CCC(C(=O)c1ccc(Cl)cc1)n1ncn(-c2cnc(N3CCN(c4ccc(OC)cc4)CC3)nc2)c1=O` (stereo not drawn), with 185 °C; and `c1cc(OCC2CO2)c2nonc2c1` (stereo not drawn), with 75 °C.

Consider `O=C(O)c1c([N+](=O)[O-])ccc2c1OCO2`, for which the melting point fell in the range of 166 to 173 °C. Then `CCCCCS(=O)(=O)NC(=O)/C=C/c1ccc(OCCOC)cc1Nc1ccc(C(F)(F)F)cc1`, with 142 to 143 °C; and `COc1cc2ncc(C#N)c(Nc3ccc4sc(C)nc4c3)c2cc1OC`, with 118 to 120 °C; and `CC1(N)CCC(=O)N(C(=O)OCc2ccccc2)C1=O` (stereo not drawn), with 150 to 152 °C. In turn, `CN(CC(=O)O)S(=O)(=O)c1csc2ccccc12` returned a melting point of 139 to 140 °C.

Turning to `CCOc1cc(CN2CCN(c3ccc(C(=O)NC)cc3)CC2)cc2c1OC(C)C(=O)N2` (stereo not drawn), the melting point is 228 to 233 °C.

In turn, `CCOC(=O)c1sc(Cl)nc1C(Cl)(Cl)Cl` came in with a melting point of 42.5 to 43.5 °C. `COC(=O)C#CC(=O)c1ccc(OC)c(OC)c1OC` showed a melting point of 74 °C.

`CC(O)CCCCn1cnc2c1c(=O)n(C)c(=O)n2C` (stereo not drawn): the melting point was 93 to 94 °C. The molecule `CCN(CC(=O)O)Cc1cc(/C(=N\O)c2cccc(Br)c2)ccc1[N+](=O)[O-]` registered a melting point of 131 °C. The molecule `O=C(O)C(CCN1C(=O)c2ccccc2C1=O)Oc1ccc(-c2ccc(-c3c(Cc4ccccc4)oc4ccccc34)cc2)cc1` (stereo not drawn) registered a melting point of 182 to 184 °C. Then `CCOc1cc(OCC)c2c(=O)c(OCC)c(-c3ccccc3)oc2c1`, with 111 to 114 °C.

The molecule `CCNS(=O)(=O)c1nc2ccccc2n1CC` gave a melting point of 135 to 139 °C. `Cc1c(NC(=O)CC(C)(C)C)cc2c(c1C)OC(C)(C)C2Nc1ccccc1` (stereo not drawn): the melting point was in the range of 151 to 152 °C. Regarding `COc1cccc(Cc2nc3c(N)ncnc3[nH]2)c1`, the melting point fell in the range of 163 to 165 °C. Then `CC(C)Oc1cn(-c2cccc(C(F)(F)F)c2)nc(-c2ccnn2-c2ccccc2)c1=O`, with 137 to 139 °C; and `O=C(NCc1ccccc1)c1ccc(F)c2c1CC(N(CCCc1c[nH]c3ccc(F)cc13)C1CCC1)CO2` (stereo not drawn), with 124 °C; and `O=c1c2ccccc2oc2cc(O)ccc12`, with 242 °C. Regarding `CCCCCCc1cc(-c2nc(-c3cc(CCCCCC)c(O)cc3O)nc(-c3cc(CCCCCC)c(O)cc3O)n2)c(O)cc1O`, the melting point is > 250 °C. Molecule `COC(=O)C1=C(C)NC(C)=C(C(=O)OCCN2CCN(C(c3ccccc3)c3ccccc3)CC2)C1c1cccc(Cl)c1Cl` (stereo not drawn) showed a melting point of 84 to 88 °C. Then `CN1Cc2c(Cl)ncn2-c2ccccc2C1=S`, with 198 °C; and `CC(O)COc1ccc2c(c1)OC(C)(C)CC2=O` (stereo not drawn), with 111 to 113 °C.

The molecule `Cc1ccc(NC(=O)C(CS)Cc2ccccc2)c(C)c1C(=O)O` (stereo not drawn) registered a melting point of 180 to 181 °C. In turn, `O=C(O)c1ccc2c(c1)S(=O)(=O)c1ccccc1-2` displayed a melting point of 312 °C. Then `O=C(N1c2ccccc2C(Br)C(Br)c2ccccc21)C(F)(F)F` (stereo not drawn), with 186 to 189 °C; and `NS(=O)(=O)c1ccc(-c2cc(-c3nc(-c4ccc(F)cc4)cc(C(F)(F)F)n3)ccn2)s1`, with 282 °C; and `Cn1c(=O)cc(-c2cccc(Cl)c2)c2cc(C(=O)c3cccc(I)c3)ccc21`, with 235 °C. `Cc1cc2c(cc1-c1ccc(C=CC(=O)O)s1)C(C)(C)CCC2(C)C` gave a melting point of 175 to 177 °C.

With `O=S(=O)(Oc1ccc(OCc2ccc3ccccc3n2)cc1C1(c2ccccc2)CC2CCC1C2)C(F)(F)F` (stereo not drawn), the melting point was 131 to 132 °C.

For `CN1Cc2c(C(=O)OC(C)(C)C)ncn2-c2cccc(C#N)c2C1=O`, the melting point lay within 213 to 215 °C. Then `CC(C)CNc1c(N)c2nnnn2c2cnccc12`, with 203 to 204 °C; and `CCOC(=O)Cn1c(=O)c(=O)[nH]c2cc(C(F)(F)F)c(N)cc21`, with > 250 °C. Then `CN(C(=O)OC(C)(C)C)c1cc(Oc2ccc(-n3ccnc3)cc2)ccc1N`, with 115 to 116 °C; and `CC(C)(C)Sc1c(CC(C)(C)C(=O)O)n(Cc2ccc(Cl)cc2)c2ccc(OCc3ccc4ccccc4c3)cc12`, with 213 to 214 °C; and `FC(F)Sc1ccc(-c2ccc(Cl)cc2)[nH]1`, with 42 to 46 °C. Take `O=C(O)c1nn(Cc2ccccc2)c2c1CCc1cc(OCc3cncnc3)ccc1-2`: the melting point is 236 to 237 °C. Take `Cc1ccc(S(=O)(=O)N2[C@@H](C#N)CC[C@H]2c2ccc(F)cc2)cc1` (racemic): the melting point came out at 128 °C. Molecule `COC(=O)c1nc(C(=O)c2ccc(N)c(OC)c2)n2ccccc12` had a melting point of 63 °C.

For `N#Cc1c(-c2cccc(CN)c2)cc(-c2ccccc2O)nc1NC(=O)c1cccs1`, the melting point is 203 to 205 °C. In turn, `CC1(C)OCc2c1nc1ccccc1c2NCCCN1CCCC1` had a melting point of 70 to 75 °C. Then `COP(=S)(OC)Oc1nsc(-c2ccccc2)c1C#N`, with 40 °C.

`COc1cccc(OC2CN([C@H]3CC[C@@H](c4c[nH]c5ccc(F)cc54)CC3)C2)c1` registered a melting point of 125 to 127 °C. Then `N#Cc1c(S(=O)(=O)C(F)(F)C(F)Cl)[nH]c2ccccc12` (stereo not drawn), with 164 to 167 °C; and `Nc1ccn(C2OC(CO)C(O)C2O)c(=O)c1F` (stereo not drawn), with 234 to 236 °C. Turning to `O=C(Oc1cc(OC(=O)c2ccccc2)c(C(=O)C=Cc2ccc(O)cc2)c(OC(=O)c2ccccc2)c1)c1ccccc1`, the melting point fell in the range of 198 to 200 °C. With `CC(C)(S)CN1CCC(CCO)CC1`, the melting point came to 42 °C.

Molecule `OC(CN1CCNC1=S)c1cc(Cl)cc(Cl)c1` (stereo not drawn) returned a melting point of 158 °C. Consider `CCSC1C(=O)N=C(NC(=O)Nc2cccc(Cl)c2)N1C` (stereo not drawn), for which the melting point fell in the range of 102 to 104 °C. Then `Cc1ccc(S(=O)(=O)C(CC(=O)C(C)(C)C)c2ccc(Cl)cc2)cc1` (stereo not drawn), with 170 to 171 °C; and `CS(=O)(=O)OCCC1(CCOS(C)(=O)=O)c2ccccc2Oc2ccccc21`, with 121 to 122 °C; and `Cc1cccc(C)c1NC(=S)CC(=O)Nc1ccc(-c2ncn(-c3ccc(OC(F)(F)F)cc3)n2)cc1`, with 178 to 182 °C. As for `C[C@H](C#Cc1ccc(Cc2ccc3ccccc3c2)s1)N(O)C(N)=O`, the melting point fell in the range of 134 to 135 °C. Then `COC1=C(OC)C(=O)C2=C(CC(CCCCCCCC(=O)O)(C(=O)O)C2)C1=O`, with 119 to 123 °C; and `CCCCCCCCCCCCCCCCOC(=O)c1ccc(Cl)c(Nc2cc(=O)n(-c3c(Cl)cc(Cl)cc3Cl)n2C(=O)OCc2ccccc2)c1`, with 128 to 131 °C. Then `COc1ccc(C(C#N)C2(O)CCCCC2)cc1` (stereo not drawn), with 125 to 127 °C; and `COC(=O)c1oc(Cl)nc1C`, with 69 to 71 °C; and `NC(Cc1c[nH]c2c(Cl)cccc12)C(=O)O` (stereo not drawn), with 236 to 239 °C.

`Cc1ccc(S(=O)(=O)OC[C@H]2COc3ccc([N+](=O)[O-])c(CC(=O)O)c3O2)cc1`: the melting point lay within 158 to 159 °C.

In the case of `NC(=O)N1CCCC(CC(=O)c2ccc(F)cc2)C1` (stereo not drawn), the melting point lay within 136 to 138 °C. Regarding `COc1cc2oc(=O)c(CCO)c(C)c2cc1O`, the melting point was in the range of 229 to 235 °C. Take `Nc1cnc(Oc2cnc3ccccc3c2)c(Cl)c1`: the melting point lay in the range of 156 to 159 °C. Then `O=C1Nc2cccc(Cl)c2C1(O)c1cc2c(cc1O)OCO2` (stereo not drawn), with 250 to 253 °C. Then `Cc1cccc2oc(Nc3ccc(CC(=O)O)cc3)nc12`, with 337 to 339 °C; and `ON=C1CCCCC1=Cc1ccccc1`, with 114 to 115 °C.

In turn, `COc1ccc(C(=O)Nc2ccccc2)cc1NCc1cccc(Cl)c1` returned a melting point of 203 to 205 °C. `Cc1nc2c(S(N)(=O)=O)cccc2s1` returned a melting point of 236 to 239 °C.

Turning to `COc1cc(C)nc(NC(=O)NS(=O)(=O)c2ccccc2NC(C)=O)n1`, the melting point was in the range of 161 to 162 °C. Then `CCSCc1ccc(CC(N)C(=O)O)cc1` (racemic), with 251 °C. The molecule `CC(=O)OC1CSC(Oc2cccc(-c3cccnc3)n2)C(OC(C)=O)C1OC(C)=O` (stereo not drawn) yielded a melting point of 141 °C. Then `O=C(COc1cc(-c2ccccc2)nc2ccccc12)N1CCOCC1`, with 145 °C; and `Cc1cc(C(Cl)=NNc2ccccc2)ccc1[N+](=O)[O-]`, with 146 to 148 °C. With `CCOC(=O)CCCCOc1ccc(OCC(F)(F)F)cc1C(=O)NCC1CCCCN1` (stereo not drawn), the melting point lay in the range of 100 to 102 °C. On to `CC(C)c1cc2c(cc1C(CC(=O)O)c1ccccc1)OCO2` (stereo not drawn), for which the melting point stood at 114 °C.

`CCN(CC)CCc1ccc2cc(N)ccc2n1` had a melting point of 93 to 94 °C. Regarding `Clc1c2ccccc2nc2c1c(CBr)nn2-c1ccccn1`, the melting point is 203 to 205 °C.
